Assay results taken from US8900845B2, “Methods and uses of KSR kinase, and mutations thereof” (Washington University, priority 2011, dated 2014).

What was measured:
[1] = biological target: FLAG-KSR and BRAF dimer (Homo sapiens, UniProt P15056); test: Co-immunoprecipitation of KSR/BRAF dimers in drug-treated cells; assay type: cell-based; conditions: cells overexpressing FLAG-KSR and BRAF, drug for 1 hour, KSR immunoprecipitates immunoblotted for BRAF
Method: (§1) Dimerization experiments: For most experiments, constructs for wild-type and mutated BRAF, CRAF and KSR1 were appended with epitope tags (FLAG, 6× His, Myc, GFP) and were expressed by transient transfection into 293T cells. Cells were lysed in a buffer containing 1% NP40 and 0.1% deoxycholate. Cells were pretreated with drugs for 1 hour prior to lysis. Immunoprecipitates were analyzed by gel electrophoresis and immunoblotted after transfer to nitrocellulose membranes using standard methods.
(§2) Cells grown in serum, expressing combinations of KSR, BRAF and CRAF, were treated with both drugs. Co-immunoprecipitations were then performed to examine dimer formation.
(§3) KSR immunoprecipitates were prepared from cells overexpressing FLAG-KSR and BRAF after treatment with the indicated drug for 1 hour and immunoblotted using antibodies to BRAF.

[2] = test system: MEK phosphorylation (pMEK); test: MEK activation (pMEK immunoblot) in cells co-expressing KSR and CRAF; assay type: cell-based; conditions: saturating dose, 2 hours
Method: Kinase reactions: Cells transfected with various constructs were treated or not with PLX4720 for 1-2 hours. Cells were lysed with 1% NP40 and immunoprecipitates prepared.
In these experiments, we tested the function of the CRAF/KSR dimer by co-expressing both proteins and using PLX4720 (FIG. 1F) or GDC0879 (data not shown) to induce dimer formation between the two proteins. […] Cells expressing the indicated constructs were treated with a saturating dose of PLX for 2 hours before cell lysates were prepared and analyzed for pMEK by immunoblotting.

[3] = biological target: KSR kinase activity towards MEK (Homo sapiens, UniProt P04049); conditions: cells co-expressing KSR and CRAF treated with 10 μM for one hour; immunoprecipitates pre-treated with 50 μM PLX
Sequence of KSR kinase activity towards MEK (Q61097 whole entry partner): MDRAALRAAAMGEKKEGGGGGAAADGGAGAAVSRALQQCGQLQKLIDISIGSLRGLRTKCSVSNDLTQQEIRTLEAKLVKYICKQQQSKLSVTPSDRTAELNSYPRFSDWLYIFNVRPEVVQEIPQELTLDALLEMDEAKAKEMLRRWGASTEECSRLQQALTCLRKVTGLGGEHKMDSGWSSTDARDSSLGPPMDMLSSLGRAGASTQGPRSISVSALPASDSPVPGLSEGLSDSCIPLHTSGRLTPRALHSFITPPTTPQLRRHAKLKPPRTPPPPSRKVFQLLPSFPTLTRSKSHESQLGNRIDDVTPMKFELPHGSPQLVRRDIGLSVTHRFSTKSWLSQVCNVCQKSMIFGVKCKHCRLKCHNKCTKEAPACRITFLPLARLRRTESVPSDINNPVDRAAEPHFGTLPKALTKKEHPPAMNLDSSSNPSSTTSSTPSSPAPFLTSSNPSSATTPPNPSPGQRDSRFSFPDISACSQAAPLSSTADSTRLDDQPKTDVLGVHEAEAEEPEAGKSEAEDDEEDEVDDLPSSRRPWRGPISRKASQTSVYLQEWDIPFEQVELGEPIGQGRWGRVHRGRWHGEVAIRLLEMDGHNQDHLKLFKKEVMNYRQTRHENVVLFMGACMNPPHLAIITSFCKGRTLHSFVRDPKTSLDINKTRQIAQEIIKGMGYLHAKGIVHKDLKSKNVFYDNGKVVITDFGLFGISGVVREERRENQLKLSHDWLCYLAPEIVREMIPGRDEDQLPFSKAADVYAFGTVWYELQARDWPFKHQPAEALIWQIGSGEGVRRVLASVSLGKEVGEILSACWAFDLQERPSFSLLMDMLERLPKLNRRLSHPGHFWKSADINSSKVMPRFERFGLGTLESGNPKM
Sequence of KSR kinase activity towards MEK (P04049 whole entry): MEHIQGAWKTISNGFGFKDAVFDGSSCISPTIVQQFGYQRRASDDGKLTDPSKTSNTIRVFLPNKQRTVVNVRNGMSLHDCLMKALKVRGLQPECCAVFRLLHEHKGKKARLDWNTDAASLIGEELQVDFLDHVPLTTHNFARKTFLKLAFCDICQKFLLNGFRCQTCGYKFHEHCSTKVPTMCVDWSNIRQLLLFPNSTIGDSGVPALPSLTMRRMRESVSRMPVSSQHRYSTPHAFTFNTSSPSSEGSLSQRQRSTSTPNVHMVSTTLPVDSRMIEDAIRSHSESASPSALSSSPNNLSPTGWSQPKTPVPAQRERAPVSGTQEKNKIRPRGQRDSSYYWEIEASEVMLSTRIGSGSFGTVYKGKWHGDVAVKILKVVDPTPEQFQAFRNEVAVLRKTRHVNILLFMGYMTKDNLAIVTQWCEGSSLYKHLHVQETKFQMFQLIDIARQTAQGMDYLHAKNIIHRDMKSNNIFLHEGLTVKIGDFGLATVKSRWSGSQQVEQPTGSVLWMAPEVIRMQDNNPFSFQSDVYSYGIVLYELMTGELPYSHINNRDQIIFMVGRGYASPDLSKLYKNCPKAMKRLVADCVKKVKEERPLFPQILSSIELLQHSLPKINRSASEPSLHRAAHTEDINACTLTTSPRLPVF
Method: Kinase reactions: Cells transfected with various constructs were treated or not with PLX4720 for 1-2 hours. Cells were lysed with 1% NP40 and immunoprecipitates prepared. In vitro kinase reactions were performed in a standard buffer with 10 mM MgCl2, with 1 ug of kinase dead MEK, and 100 uM cold ATP. In some experiments, to inhibit contaminating Raf activity, 50 uM PLX4720 was preincubated with the reactions.
To test whether KSR might be activated by CRAF, we co-expressed KSR and CRAF and induced dimerization of CRAF with KSR by adding a low dose (10 μM) of PLX4720. KSR immunoprecipitates were then prepared and tested for kinase activity in vitro. To inhibit any contaminating RAF kinase activity co-precipitating with KSR, we preincubated the immunoprecipitates with an inhibitory dose of PLX4720 (50 μM). […] Cells were co-transfected with WT or ATP binding deficient KSR and CRAF and immunoprecipitates prepared after cells were treated with an activating dose of PLX (10 μM) for one hour. Immunoprecipitates were prepared, pre-treated with 50 μM PLX to inhibit co-precipitating RAF activity and then tested for kinase activity using purified MEK.

[4] = biological target: T1, KSR and CRAF dimer (Homo sapiens, UniProt P04049); test: Co-immunoprecipitation of KSR/CRAF dimers in drug-treated cells; assay type: cell-based; conditions: cells overexpressing FLAG-KSR and myc-CRAF, drug for 1 hour, FLAG-KSR immunoprecipitates immunoblotted for CRAF (myc)
T1 construct: expressed in transfected cells; host or cells: 293T cells
T1 sequence (P04049 whole entry): as above
T1 sequence (Q61097 whole entry partner): as the sequence (Q61097 whole entry partner) above
Method: as §1, §2, §3

[5] = biological target: BRAF/CRAF dimers (Homo sapiens, UniProt P04049+P15056); conditions: cells overexpressing myc-CRAF and BRAF, drug for 1 hour, CRAF immunoprecipitates immunoblotted for BRAF
Sequence of BRAF/CRAF dimers (P15056 whole entry): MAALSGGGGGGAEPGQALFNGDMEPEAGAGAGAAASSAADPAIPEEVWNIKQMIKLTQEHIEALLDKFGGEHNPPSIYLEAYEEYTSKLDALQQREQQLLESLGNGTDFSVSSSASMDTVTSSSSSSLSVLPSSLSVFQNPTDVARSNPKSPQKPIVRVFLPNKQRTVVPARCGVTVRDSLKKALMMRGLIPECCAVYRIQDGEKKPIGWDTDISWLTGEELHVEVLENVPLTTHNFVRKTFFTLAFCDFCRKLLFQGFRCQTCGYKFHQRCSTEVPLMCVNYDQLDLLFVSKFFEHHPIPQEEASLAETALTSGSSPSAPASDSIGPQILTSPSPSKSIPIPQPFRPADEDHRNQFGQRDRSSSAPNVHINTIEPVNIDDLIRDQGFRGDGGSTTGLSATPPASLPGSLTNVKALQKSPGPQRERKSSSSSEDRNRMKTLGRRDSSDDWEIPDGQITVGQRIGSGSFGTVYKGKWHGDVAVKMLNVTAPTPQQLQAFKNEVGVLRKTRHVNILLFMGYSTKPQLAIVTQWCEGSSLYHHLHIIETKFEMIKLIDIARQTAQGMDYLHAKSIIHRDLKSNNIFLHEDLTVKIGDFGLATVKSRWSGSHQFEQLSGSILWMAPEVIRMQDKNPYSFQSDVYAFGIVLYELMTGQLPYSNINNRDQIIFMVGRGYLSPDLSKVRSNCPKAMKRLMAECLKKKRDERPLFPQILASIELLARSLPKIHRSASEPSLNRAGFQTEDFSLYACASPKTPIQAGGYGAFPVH
Sequence of BRAF/CRAF dimers (P04049 whole entry): as the sequence (P04049 whole entry) above
Method: as §1, §2, §3

Sequence of FLAG-KSR and BRAF dimer (P15056 whole entry): as the sequence (P15056 whole entry) above
Sequence of FLAG-KSR and BRAF dimer (Q61097 whole entry partner): as the sequence (Q61097 whole entry partner) above

CCCS(=O)(=O)Nc1ccc(F)c(C(=O)c2c[nH]c3ncc(Cl)cc23)c1F [PLX4720]
dimer formation between KSR and BRAF [1]: but not PLX4720 can induce dimer formation between FLAG-KSR and BRAF
MEK activation (pMEK) [2]: MEK was still activated
kinase activity towards MEK in KSR immunoprecipitates [3]: induced kinase activity towards MEK in the KSR immunoprecipitates
dimer formation between KSR and CRAF [4]: induce dimer formation between KSR and CRAF
dimer formation between BRAF and CRAF [5]: but not PLX4720 induces dimers between BRAF and CRAF
